What was measured:
[1] = system: adult female obese Zucker rats; experiment: Obesity and weight gain in obese Zucker rats over 32 days; format: in vivo, rat; conditions: 30 mg/kg orally once daily, vs vehicle group
Experimental: MCI-225 is evaluated in adult female obese Zucker rats over a period of 32 days. A control group of 6 animals is dosed daily with vehicle alone whilst a second group of 6 weight-matched animals receives MCI-225 at 30 mg/kg given orally once daily. Food is available ad libitum, except on days 0, 7, 14, 21, 28 and 32 when food was removed from the animals at 7.30 am and animals weighed within 2 hours following removal of food. Food is supplied after weights of animals are measured.

alcohol-preferring rats = experiment: Alcohol intake in alcohol-preferring rats; format: in vivo, rat; conditions: 30 mg/kg/day orally over 4 consecutive days, vs vehicle
Experimental: The effects of MCI-225 are determined in alcohol-preferring rats. Because of their pattern of drinking, these animals seem to represent a valid model of the human condition of alcoholism (McBride et al, 1990, Alcohol 7:199-205, Lankford et al, 1991, Pharmacol. Biochem. Behav., 8:293-299). After maximally preferred alcohol concentrations had stabilised for 4 days, MCI-225 at 30 mg/kg/day orally or vehicle was administered over 4 consecutive days.

rats [2] = experiment: Nicotine withdrawal model using the acoustic startle reflex in rats; format: in vivo, rat; conditions: for example 30 mg/kg/day following nicotine withdrawal (nicotine 6 mg/kg/day s.c. for 12 days)
Experimental: The effects of MCI-225 are investigated in a model of nicotine withdrawal using the acoustic startle reflex in rats (see e.g. Helton et al, 1997, Neuropharmacology 36 (11-12):1511-1516). Nicotine (6 mg/kg/day) is administered for 12 days subcutaneously by osmotic minipumps. After 12 days, the pumps are removed and the animals allowed to go through spontaneous withdrawal. Cessation of chronic nicotine exposure leads to increased startle responses (sensorimotor reactivity) for 4 days following withdrawal.

rats [3] = experiment: Transient middle cerebral artery occlusion model in rats; format: in vivo, rat; conditions: 30 mg/kg, for example 2 hours after onset of occlusion, vs vehicle-treated animals
From the text: The effects of MCI-225 are studied in a transient middle cerebral artery occlusion model in rats (see Chen et al, 1999, J. Neurol. Sci. 171(1):24-30). In particular, effects on an array of functional measures are studied, including rotarod, adhesive-backed somatosensory and neurological scores.

ferret = experiment: Cisplatin-induced emesis in the ferret; format: in vivo; conditions: 30 mg/kg orally 1 hour prior to cisplatin, vs control animals
From the text: The effects of MCI-225 are studied against cisplatin-induced emesis in the ferret (see Florczyk et al, 1982, Cancer Treat. Rep. 66(1):187-189). […] Efficacy against cisplatin predicts efficacy against radiation-induced nausea/vomiting.

Cc1cc2c(-c3ccccc3F)nc(N3CCNCC3)nc2s1.Cl.O [MCI-225]
body weights [1]: lower body weights | intake of alcohol in terms of absolute g/kg and/or proportion of alcohol to total fluid intake (alcohol-preferring rats): reduction in intake of alcohol | enhanced auditory startle response following withdrawal of nicotine (rats [2]): attenuation of the enhanced auditory startle response | functional scores (rotarod, adhesive-backed somatosensory, neurological) following ischaemia (rats [3]): improvement in one or more of the functional scores | emetic response (ferret): reduction in the emetic response
